Data taken from EP0698025B1, “AMPA ANTAGONISTS AND A METHOD OF TREATMENT THEREWITH” (NEUROSEARCH A/S, priority 1993, dated 1994).

What was measured:
AMPA receptor = AMPA receptor binding affinity (as described by T. Honoré et al., Neuroscience Letters 54, 27-32 (1985)); conditions: binding affinity for the AMPA receptor
[1] = test system: AMPA-induced clonic seizures; experiment: In vivo AMPA seizure test (AMPA-induced clonic seizures); set-up: species or system female NMRI mice; conditions: Mus musculus; dose inhibiting 50% of the mice from having clonic seizures; test compound i.v. 5 min (or p.o. 30 min) before 0.3 µg icv AMPA; route not given
Procedure: Also compounds of the present invention when adminestered i.v. or i.p. in the in vivo AMPA seizure test as described below inhibit the clonic seizures induced by AMPA.
AMPA given icv (intracerebroventricular) (15 µg/kg) NMRI to mice induces clonic seizures which should be inhibited by non-NMDA receptor antagonists. Method: Test compound was given i.v. 5 min (or p.o. 30 min) before a 0.3 µg icv administration of AMPA to 10 female NMRI mice (weighing 24-26 g) per dose. The number of mice experiencing clonic seizures within the next 5 min was noted. An ED50 value was calculated as the dose inhibiting 50% of the mice from having clonic seizures.

| Compound | IC50 (AMPA receptor) [nM] | ED50 [1] [mg/kg] |
| --- | --- | --- |
| CN1Cc2c(-c3ccc([N+](=O)[O-])cc3)cc3[nH]c(=O)c(=O)[nH]c3c2C1 [Compound 3] | 600 |  |
| CN1CCc2c(-c3ccccc3)cc3c(c2C1)NC(=O)C3=NO [Compound 9, 8-methyl-5-phenyl-6,7,8,9-tetrahydro-1H-pyrrolo[3,2-h]isoquinoline-2,3-dione 3-oxime] | 200 |  |
| CN1CCc2c(-c3ccc([N+](=O)[O-])cc3)cc3c(c2C1)NC(=O)C3=NO [Compound 10, 8-methyl-5-(4-nitrophenyl)-6,7,8,9-tetrahydro-1H-pyrrolo[3,2-h]isoquinoline-2,3-dione 3-oxime] | 150 | 5 |
| CCN1Cc2c(-c3ccccc3)cc3c(c2C1)NC(=O)C3=NO [Compound 13] | 100 |  |
